In US20180258180A1, “COMBINATION THERAPY INVOLVING ANTIBODIES AGAINST CLAUDIN 18.2 FOR TREATMENT OF CANCER” (Ganymed Pharmaceuticals AG, priority 2012, published 2018):

Experiments:
CLDN18.1 = CLDN18.1 (Homo sapiens, UniProt P56856); test: IMAB362 binding to other claudin family members
[1] = tested on: CLDN18.2-positive cancer cell lines; test: IMAB362 treatment of mice bearing CLDN18.2-positive cancer cell lines; type: in vivo
[2] = tested on: NUGC-4 gastric cancer cells; test: IMAB362-mediated ADCC on chemotherapy pretreated NUGC-4 cells; type: cell-based, human; conditions: NUGC-4 pretreated with 5-FU+OX, EOF or FLO for 96 hours
Method: IMAB362-mediated ADCC was investigated using NUGC-4 gastric cancer cells as target, which were either pretreated with 10 ng/ml 5-FU and 500 ng/ml oxaliplatin (5-FU+OX), 10 ng/ml epirubicin, 500 ng/ml oxaliplatin and 10 ng/ml 5-FU (EOF) or 10 ng/ml 5-FU, 50 ng/ml folinic acid and 500 ng/ml oxaliplatin (FLO) for 96 hours (effector:target ratio 40:1) or untreated. EC50 values were obtained from 7 healthy donors for untreated and EOF, FLO or 5-FU+OX pretreated NUGC-4 cells.

[3] = Repeated dose toxicity study in cynomolgus monkeys; type: in vivo; conditions: up to 5 weekly applications of up to 100 mg/kg
From the text: (§1) This compartimentalization is lost upon malignant transformation rendering the epitope drugable by IMAB362.

[4] = tested on: NCI-N87~CLDN18.2 xenograft tumors; test: Combination of IMAB362 and EOF regimen on NCI-N87~CLDN18.2 xenografts; type: in vivo, nude mice
Method: NCI-N87˜CLDN18.2 xenograft tumors were inoculated by injection of 1×10^7 NCI-N87˜CLDN18.2 cells subcutaneous into the flank of 9 mice for each treatment group. […] IMAB362 treatment was continued weekly. Tumor size and animal health was monitored semi-weekly. […] The size of s.c. tumors was measured twice weekly (mean+SEM; *p<0.05). […] Mice were sacrificed, when tumor reached a volume of 1400 mm^3.

[5] = tested on: CLDN18.2-transfected HEK293 cells; test: IMAB362 with ZA/IL-2 induced Vγ9Vδ2 T cells on HEK293~CLDN18.2 tumors in NSG mice; type: in vivo; conditions: 200 μg semi-weekly, in the presence of human γδ T cells and ZA (and IL-2)
Method: NSG mice lack mature T cells, B cells, natural killer (NK) cells, multiple cytokine signaling pathways, and they have many defects in innate immunity, whereas the niches in the primary and secondary immunological tissues are permissive to colonization by human immune cells.
NSG mice were inoculated subcutaneously with 1×10^7˜CLDN18.2-transfected HEK293 cells. On the same day, mice received 8×10^6 human PBMCs enriched for Vγ9Vδ2 T cells, which were cultured for 14 days in ZA-supplemented medium. […] To maintain human T cells functional, IL-2 was administered semi-weekly and ZA weekly. […] In addition to 9 mice treated as described, two control groups of mice were established.

[6] = tested on: CLDN18.2-positive (NUGC-4, KATO III) human target cell lines; test: IMAB362 ADCC with ZA/IL-2 expanded effector cells on CLDN18.2-positive target cell lines; type: cell-based
Method: These effector cell cultures were used in ADCC assays with CLDN18.2-positive (NUGC-4, KATO III) and negative (SK-BR-3) human target cell lines (E:T ratio 40:1). […] ADCC was measured in luciferase assays; cf. FIG. 15a. […] FIG. 15b. Same experiment as described in (a) was performed using NUGC-4 as target cells; cf. FIG. 15c. […] A purity of more than 97.0% Vγ9Vδ2 T cells in lymphocytes was obtained.

[7] = tested on: HEK293~CLDN18.2 transfectants; test: Early treatment of HEK293~CLDN18.2 tumor xenografts; type: in vivo, nude mice; conditions: 200 μg twice per week for 6 weeks
From the text: Moreover, advanced tumor treatment experiments were initiated up to 9 days after tumor cell inoculation when tumors had reached volumes of about 60-120 mm^3.
Nude mice were subcutaneously inoculated with 1×10^7 HEK293˜CLDN18.2 transfectants. Treatment of 10 mice per group started 3 days after tumor inoculation. […] Not only time to death was prolonged, but 4 of 10 mice survived the entire observation period of 210 days.

[8] = tested on: NCI-N87~CLDN18.2 xenograft tumors; test: NCI-N87~CLDN18.2 gastric carcinoma xenografts, IMAB362 immunotherapy; type: in vivo, nude mice; conditions: 800 μg i.v. weekly
Method: NCI-N87˜CLDN18.2 xenograft tumors were inoculated subcutaneously by injection of 1×10^7 NCI-N87˜CLDN18.2 cells into the flank of 8 nude mice (female, 6 weeks old) per treatment group. […] Intravenous administration was continued weekly for the whole observation time. Tumor size and animal health was monitored semi-weekly. […] The size of s.c. tumors was measured twice weekly (mean+SEM, ***p<0.001). […] Mice were sacrificed, when tumor reached a volume of 1400 mm^3.

[9] = tested on: NUGC-4~CLDN18.2 xenografts; test: NUGC-4~CLDN18.2 xenografts, IMAB362 immunotherapy; parameters: species or system mice; conditions: mouse, in vivo
[10] = tested on: CLS-103~cldn18.2 allograft tumors; test: Combination of IMAB362 and EOF on CLS-103~cldn18.2 allograft tumors; parameters: species or system NMRI mice; conditions: mouse, in vivo
From the text: Tumor size and animal health were monitored semi-weekly. Mice were sacrificed, when tumor reached a volume of 1400 mm^3 or tumors became ulcerous.

[11] = Toxicity and PK/TK profile studies (any toxicity study); type: in vivo, mice and cynomolgus monkeys
From the text: as §1

[12] = tested on: CLDN18.2-negative HEK293 tumor cells; test: IMAB362 treatment of CLDN18.2-negative HEK293 tumors; parameters: species or system mice; conditions: mouse, in vivo
From the text: Treatment of 9 to 10 mice per group was initiated when mean tumor volumes reached 88 mm^3 (62-126 mm^3). […] All mice in the groups treated with either PBS or isotype control died within 50-100 days. […] Three of these mice survived the entire observation period (FIG. 20). Importantly, antitumoral efficacy in vivo depends on the presence of the target on the tumor cells.

[13] = tested on: NUGC-4~CLDN18.2 xenograft tumors; test: Combination of IMAB362 and EOF regimen on NUGC-4~CLDN18.2 xenografts; parameters: species or system nude mice; conditions: mouse, in vivo
Method: Xenograft tumors were inoculated by injection of 1×10^7 NUGC-4˜CLDN18.2 cells subcutaneous into the flank of 10 nude mice (female, six weeks old) per treatment group. Mice were treated on day 3, 10, 17 and 24 with chemotherapeutic agents. IMAB362 treatment was continued weekly.

[14] = Repeated dose toxicity study in mice; type: in vivo; conditions: weekly administration for 3 months, highest dose levels 400 mg/kg
From the text: as §1

Sequence of CLDN18.1 (P56856 whole entry): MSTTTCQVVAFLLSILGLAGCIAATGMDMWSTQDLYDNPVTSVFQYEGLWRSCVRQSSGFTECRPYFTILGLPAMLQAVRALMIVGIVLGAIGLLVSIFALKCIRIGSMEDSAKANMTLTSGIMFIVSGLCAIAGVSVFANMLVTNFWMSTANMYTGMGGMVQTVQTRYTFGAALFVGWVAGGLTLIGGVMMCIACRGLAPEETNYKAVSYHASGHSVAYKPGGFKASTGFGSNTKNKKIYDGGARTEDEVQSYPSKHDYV

IMAB362: chimeric IgG1 antibody directed against CLDN18.2, developed by Ganymed Pharmaceuticals AG
binding to any other claudin family member including CLDN18.1 (CLDN18.1): does not bind | mice showing regression of their tumor [1]: up to 40% | survival [1]: survival benefit | maximal lysis in IMAB362-mediated ADCC, pretreated versus untreated target cells [2]: higher maximal lysis | EC50 of IMAB362-mediated ADCC on pretreated cells relative to untreated cells ([2]; E:T 40:1, 7 donors): one third | tolerability of repeated doses i.v. [3]: well tolerated | tumor growth compared to control mice ([4]; IMAB362 800 μg weekly, EOF i.p. day 4, 11, 18, 25): highly significant suppressed tumor growth | median survival ([4]; saline control 59 days): 76 days | outgrowth of CLDN18.2-positive tumors [5]: significantly inhibited and nearly abrogated | ADCC activity with Vγ9Vδ2 T cells isolated with >97% purity ([6]; NUGC-4 targets, day 14): retained and partly improved | ADCC activity against CLDN18.2-positive human tumor cell lines ([6]; ZA/IL-2 cultured effector cells, E:T 40:1): Strong ADCC activity | mice surviving the entire observation period of 210 days [7]: 4 of 10 | survival ([7]; start 3 days after inoculation): survival benefit | survival time [8]: significantly (p<0.05) longer survival time | tumor growth ([8]; start 5 days after inoculation, versus saline): inhibited highly significant (p<0.001) | survival [9]: significantly (p<0.05) longer survival | tumor sizes at day 14 of treatment [9]: significant (p<0.05) smaller tumor sizes | tumor growth inhibition compared to saline control group [10]: no significant tumor growth inhibition | gastric toxicity ([11]; any toxicity study): no gastric toxicity | adverse effects on male or female reproductive organs ([11]; in vivo): No adverse effects | binding to tissues lacking the target ([11]; in vivo): does not bind | immune activation and cytokine release ([11]; in vivo): does not induce | systemic or local toxicity ([11]; repeated doses i.v., mice and cynomolgus monkeys): No signs of systemic or local toxicity | antitumoral effects [12]: No antitumoral effects | tumor growth compared to saline treated control group [13]: inhibited significantly the tumor growth | tolerability of repeated doses i.v. [14]: well tolerated
